Drawing on ChEMBL document CHEMBL5365470, “Design, synthesis, and biological evaluation of THIQ as antidepressive agents” (Bioorg Med Chem Lett, 2023), this text covers viability and Activity for 27 compounds.

The structures appear in SMILES notation.

A short description of data set [1]: Cytoprotective activity against corticosterone-induced […] PC12 cell damage assessed as cell viability at 50 uM (reference value: 51.13 to 51.51 %). In kind it is functional. Conditions: Rattus norvegicus, PC-12, read-out: Activity.
Data set [2] in a line: Toxicity in […] PC12 cells at 50 uM. In kind it is cell-based, Rattus norvegicus. The following applies: pc12, 50 µM.
Data set [3] is described as follows: Toxicity in SPF ICR mouse assessed as body weight at 7 mg/kg, po via gavage administered daily for 7 days measured on day 7 (reference value: 29.54 +/- 1.87 g). The format is organism-based. The following applies: in vivo, 168 h, time 7 day.
Data set [4] can be described thus: Toxicity in SPF ICR mouse assessed as body weight at 7 mg/kg, po administered via gavage measured on day 1 (reference value: 22.24 +/- 0.9 g). In kind it is organism-based. Conditions: in vivo, 24 h, time 1 day.
Data set [5] can be described thus: Cytoprotective activity against corticosterone-induced […] PC12 cells assessed as cell survival at 10 uM preincubated for 1 hr followed by corticosterone stimulation and measured after 24 hrs (reference value: 51.13 to 51.51 %). In kind it is functional. Conditions: PC-12, time 25 hrs, read-out: Activity.
Data set [6] can be described thus: Cytoprotective activity against corticosterone-induced […] PC12 cells assessed as cell survival at 5 uM preincubated for 1 hr followed by corticosterone stimulation and measured after 24 hrs (reference value: 51.13 to 51.51 %). The following applies: PC-12, time 25 hrs, read-out: Activity. The format is functional.
A short description of data set [7]: Cytoprotective activity against corticosterone-induced […] PC12 cell damage assessed as cell viability at 50 uM preincubated for 1 hr followed by corticosterone stimulation and measured after 24 hrs (reference value: 51.13 to 51.51 %). In kind it is functional. The following applies: PC-12, time 25 hrs, read-out: Activity.
A short description of data set [8]: Toxicity in SPF ICR mouse assessed as body weight growth at 7 mg/kg, po via gavage administered daily for 7 days (reference value: 32.62 +/- 6.17 %). In kind it is organism-based. Conditions: in vivo, 168 h, time 7 day.
In data set [9] the test system is Mus musculus. Put plainly: Antidepressant activity in SPF ICR mouse assessed as decrease in immobility duration at 7 mg/kg, po via gavage administered daily for 7 days measured post-last dose by forced swimming test relative to control. The format is functional. Details: scale not given: the % may be the effect or the level left. Conditions: time 7 day.
The test system of data set [10] is Mus musculus. Put plainly: Antidepressant activity in SPF ICR mouse assessed as decrease in immobility duration at 7 mg/kg, po via gavage administered daily for 7 days measured post-last dose by tail suspension test relative to control. In kind it is functional. Details: scale not given: the % may be the effect or the level left. The following applies: time 7 day.

Data set [11] in a line: Cytoprotective activity against corticosterone-induced […] PC12 cell damage assessed as cell viability at 5 uM (reference value: 51.13 to 51.51 %). In kind it is functional. The following applies: PC-12, read-out: Activity.
The subject of the next data set is PC12. Nature of the data set: Cytoprotective activity against corticosterone-induced […] PC12 cell damage assessed as increase in cell survival. The format is functional, cell-based. The following applies: dose 5-50 µM.
Data set [12] is described as follows: Cytoprotective activity against corticosterone-induced […] PC12 cell damage assessed as cell viability at 10 uM (reference value: 51.13 to 51.51 %). The format is functional. The following applies: PC-12, read-out: Activity.

Consider `COc1cc2c(cc1OC)CN(CCc1ccc(F)cc1)CC2`, for which the viability at 50 µM in data set [1] was 38.2%.
As to `COc1cc2c(cc1OC)CN(Cc1ccc(F)cc1)CC2`, the viability at 50 µM in data set [1] was found to be 49.5%. The Activity entry in data set [2] is “Non-Toxic”.
For `COc1ccc(CCCN2CCc3cc(OC)c(OC)cc3C2)cc1` the same measures were 51.8% and “Non-Toxic”.
As to `COc1ccc(CC(=O)N2CCc3cc(OC)c(OC)cc3C2)cc1`, the viability at 50 µM in data set [1] was 51.9%.
For the compound `COc1cc2c(cc1OC)CN(C=O)CC2`, the viability at 50 µM in data set [1] was determined as 49.9%. In addition, the Activity result in [2] is given as “Toxic”.
For `COc1cc2c(cc1OC)CN(C(=O)c1ccc(OC(C)=O)cc1)CC2` the same measures were 48.4% and “Toxic”.
For `COc1cc2c(cc1OC)CN(CCc1ccccc1)CC2` the same measures were 54.2% and “Non-Toxic”.
With `COc1cc2c(cc1OC)CN(C(=O)c1ccncc1)CC2`, the viability at 50 µM in data set [1] turned out to be 51.2%.
As for `COc1cc2c(cc1OC)CN(Cc1ccccc1)CC2`, the viability at 50 µM in [1] came to 49.6%. Moreover, the Activity entry in [2] is “Non-Toxic”.
For `COc1cc2c(cc1OC)CN(C(=O)Cc1ccc(O)cc1)CC2` the same measures were 42.4% and “Toxic”.
For `COc1cc2c(cc1OC)CN(C(=O)c1ccc(O)cc1)CC2` the same measures were 39.8% and “Toxic”.
For `COc1cc2c(cc1OC)CN(C(=O)c1ccc(C(F)(F)F)cc1)CC2` the same measures were 48.3% and “Toxic”.
As to `COc1cc2c(cc1OC)CN(C(=O)c1ccc(F)cc1)CC2`, the viability at 50 µM in data set [1] amounted to 49.6%. Also, the Activity result in [2] was “Toxic”.
For the compound `COc1cc2c(cc1OC)CN(C)CC2`, in [1], the viability at 50 µM turned out to be 54.5%. In addition, in data set [2], the Activity entry is on record as “Non-Toxic”.
Regarding `COc1cc2c(cc1OC)CN(CCc1ccc(O)cc1)CC2`, the viability at 50 µM in data set [1] is 50.4%. Besides, the Activity entry in [2] was “Non-Toxic”.
For `COc1cc2c(cc1OC)CN(C(C)=O)CC2` the same measures were 37.2% and “Toxic”.
`COc1ccc(C(=O)N2CCc3cc(OC)c(OC)cc3C2)cc1`: in [1], the viability at 50 µM was 44.8%. Besides, the Activity entry in data set [2] is “Toxic”.
For `CCN1CCc2cc(OC)c(OC)cc2C1` the same measures were 58.9% and “Non-Toxic”.
For `COc1ccc2c(c1O)-c1c(O)c(OC)cc3c1[C@H](C2)[N+](C)(C)CC3` [MAGNOFLORINE], the Activity is on record as 29.44 g in data set [3]; 24.21 g in data set [4]; 21.15% in data set [8]; 68.61% with Mus musculus [9]; 65.65% in the data set on Mus musculus [10]. For the same compound, in [5], the viability at 10 µM is 73.7%. Besides, the viability at 5 µM in data set [6] came to 48.6%. The viability at 50 µM in [7] turned out to be 48.6%.
As to `COc1cc2c(cc1OC)CN(C(=O)c1ccccc1)CC2`, the viability at 50 µM in data set [1] is 35.6%. In [2], the Activity result was “Toxic”.
For `COc1cc2c(cc1OC)CN(C(=O)C(C)(C)C)CC2` the same measures were 33.7% and “Toxic”.
Regarding `COc1cc2c(cc1OC)CN(C(=O)c1ccccc1O)CC2`, the viability at 50 µM in data set [1] is 47.3%. In data set [2], the Activity entry is “Toxic”.
As to `COc1ccc(CCN2CCc3cc(OC)c(OC)cc3C2)cc1`, the Activity in [3] was 27.5 g; in data set [4], 21.3 g; in the data set with PC12, “Dose-Dependent Effect”; in [8], 29.58%; in the data set with Mus musculus [9], 57.65%; in the data set on Mus musculus [10], 65.85%. Also, the Activity result in [2] is “Non-Toxic”. The viability at 5 µM in data set [11] is 49.1%. Also, the viability at 50 µM in data set [1] came to 69.3%. For the same compound, in [12], the viability at 10 µM came out at 65%.
Turning to `COc1cc2c(cc1OC)CN(C(=O)c1cc3ccccc3[nH]1)CC2`, in data set [1], the viability at 50 µM was 62.8%.
On the same count and under the same terms, to `COc1cc2c(cc1OC)CN(C(=O)c1cccs1)CC2` belongs 58.5%.
For the compound `COc1cc2c(cc1OC)CNCC2`, the viability at 5 µM in data set [11] was determined as 65.7%. Also, the viability at 50 µM in data set [1] turned out to be 45.8%. Also, the viability at 10 µM in data set [12] amounted to 57%.
Take `COc1ccc(CN2CCc3cc(OC)c(OC)cc3C2)cc1`: the viability at 50 µM in data set [1] turned out to be 51.8%. The Activity result in data set [2] is “Non-Toxic”.
